In patent US11925690B2, “Bifunctional molecules for targeting Rpn11” (AMPHISTA THERAPEUTICS LTD, priority 2018, dated 2024):

Columns and labels:
human cancer cell lines = details: cited from earlier work
Brd4 (L) [1] = biological target: T1, Brd4 (L) (Homo sapiens, UniProt O60885); assay: Concentration-dependent BET degradation, immunoblot; format: cell-based; details: 4 h, 1 nM-10 μM
T1 construct: endogenous in cells; host or cells: HEK293 (CRL-1573), HeLa (CCL-2)
Procedure: (§1) Immunoblotting. Proteins were separated by SDS-PAGE on NuPage 4-12% Bis-Tris gels, followed by transfer to Amersham Protran 0.45 NC nitrocellulose membrane (GE Healthcare) using wet transfer. Membranes were blocked using 5% w/v milk in Tris-buffered saline (TBS) with 0.1% Tween-20. Blots were probed (overnight at 4 °C) using anti-Brd2 (Abcam ab139690, 1:2,000 dilution), anti-Brd3 (Abcam ab50818, 1:500 dilution), and anti-Brd4 (Abcam ab128874, 1:1,000 dilution) primary antibodies, as appropriate. The next day, blots were washed with TBST and incubated (1 h at Room temperature) with anti-Tubulin hFAB-rhodamine (BioRad, 12004166) primary antibody, and either anti-rabbit IRDye 800CW (Licor 1:1,000 dilution) or anti-mouse IRDye 800CW (Licor 1:1,000 dilution) secondary antibody. Blots were developed using a Bio-Rad ChemiDoc MP Imaging System, and band quantification was performed using Image Studio software (LiCor). Band intensities were normalized to the tubulin loading control and reported as % of the average 0.1% DMSO vehicle intensity. Degradation data was plotted and analysed using Prism (Graphpad, version 8).
(§2) HeLa (5×10^5) and HEK293 (1×10^6) cells were seeded in standard 6-well plates (2 mL medium) overnight before treatment with compounds at the desired concentration (1 nM-10 μM), with a final DMSO concentration of 0.1% v/v. After 4 h treatment time, cells were washed with DPBS (Gibco) and lysed using 85 μL RIPA buffer (Sigma-Aldrich) supplemented with cOmplete Mini EDTA-free protease inhibitor cocktail (Roche) and benzonase. Lysates were clarified by centrifugation (20000 g, 10 min, 4° C.) and the total protein content of the supernatant was quantified using a Bradford colorimetric assay. Samples were prepared using equal amounts of total protein and LDS sample buffer (Invitrogen). Band intensities were normalized to the tubulin loading control and reported as % of the average 0.1% DMSO vehicle intensity. Degradation data was plotted and analysed using Prism (Graphpad, version 8).
(§3) MZ1 and 11JQ17 were used at 1 μM for positive and negative controls, respectively. […] For the table, Dmax: +(Dmax≤25%); ++(26%≤Dmax≤50%); +++(51%≤Dmax≤70%); ++++(71%≤DC50: A (DC50≤50 nM); B (51 nM≤DC50≤500 nM); C (501 nM≤DC50).

Brd4 (S) [2] = biological target: T2, Brd4 (S) (Homo sapiens, UniProt O60885); assay: as above; format: cell-based; details: 4 h, 1 nM-10 μM
T2 construct: endogenous in cells; host or cells: HEK293 (CRL-1573), HeLa (CCL-2)
Procedure: as §1, §2, §3

Brd2 [3] = biological target: T3, Brd2 (Homo sapiens, UniProt P25440); assay: Time-dependent BET degradation, immunoblot; format: cell-based; details: HEK293, Brd2, 1 μM
Procedure: as §1
as §2, with “HEK293” for “HeLa (5×10^5) and HEK293”, “(0.5×10^6)” for “(1×10^6)”, “1 μM concentration,” for “the desired concentration (1 nM-10 μM),”, “incubation for the desired time (0-24 hrs),” for “4 h treatment time,”, “complete” for “cOmplete”
(§4) MZ1 and 11JQ17 were used at 1 μM (4 h) for positive and negative controls, respectively. […]

Brd3 [4] = biological target: T4, Brd3 (Homo sapiens, UniProt Q15059); assay: Time-dependent BET degradation, immunoblot; format: cell-based; details: HEK293, Brd3, 1 μM
Procedure: as §1
as §2, with “HEK293” for “HeLa (5×10^5) and HEK293”, “(0.5×10^6)” for “(1×10^6)”, “1 μM concentration,” for “the desired concentration (1 nM-10 μM),”, “incubation for the desired time (0-24 hrs),” for “4 h treatment time,”, “complete” for “cOmplete”
as §4

Brd4 (L) [5] = biological target: T1, Brd4 (L); assay: Time-dependent BET degradation, immunoblot; format: cell-based; parameters: Dmax: dose or concentration left out as unconfirmed; details: HEK293, Brd4 (L)
Procedure: as §1
as §2, with “HEK293” for “HeLa (5×10^5) and HEK293”, “(0.5×10^6)” for “(1×10^6)”, “1 μM concentration,” for “the desired concentration (1 nM-10 μM),”, “incubation for the desired time (0-24 hrs),” for “4 h treatment time,”, “complete” for “cOmplete”
as §4

Brd4 (S) [6] = biological target: T2, Brd4 (S); assay: Time-dependent BET degradation, immunoblot; format: cell-based; parameters: Dmax: dose or concentration left out as unconfirmed; details: HEK293, Brd4 (S)
Procedure: as §1
as §2, with “HEK293” for “HeLa (5×10^5) and HEK293”, “(0.5×10^6)” for “(1×10^6)”, “1 μM concentration,” for “the desired concentration (1 nM-10 μM),”, “incubation for the desired time (0-24 hrs),” for “4 h treatment time,”, “complete” for “cOmplete”
as §4

Brd2 [7] = biological target: T3, Brd2; assay: Concentration-dependent BET degradation, immunoblot; format: cell-based; parameters: endogenous in cells; host or cells: HEK293 (CRL-1573), HeLa (CCL-2); details: 1 nM-10 μM
Procedure: as §1, §2, §3

Brd3 [8] = biological target: T4, Brd3; assay: as above; format: cell-based; parameters: endogenous in cells; host or cells: HEK293 (CRL-1573), HeLa (CCL-2); details: 1 nM-10 μM
Procedure: as §1, §2, §3

Brd4 [9] = biological target: T5, Brd4 (Homo sapiens, UniProt O60885); assay: Immunoblot analysis of Brd4 in HEK293 cells (prodrug activity, negative SAR); format: cell-based; details: HEK293, 1 μM, 4 h, n=3
T5 construct: immunoblot analysis of Brd4 following 4 h treatment of HEK293 cells; endogenous in cells; host or cells: HEK293 (CRL-1573)
Procedure: as §1, with “8). […]” for “8).”
HEK293 (1×10^6) cells incubated with DMSO, 1 μM 11JQ15 or 1 μM 11JQ17 for 4 h with a final DMSO concentration of 0.1% v/v. […] Degradation data was plotted and analysed using Prism (Graphpad, version 8), where bars are mean±SEM of three independent experiments.

HEK293 cells = assay: Unbiased whole proteome analysis by TMT-labelling MS; format: cell-based; details: HEK293, 1 μM, 4 h, n=3
Procedure: HEK293 (2.2×10 6) cells were seeded in 10 cm plates (10 mL medium) overnight before treatment with 1 μM compound for a final DMSO concentration of 0.1% v/v. After 4 h incubation time, cells were washed with 2× with DPBS (Gibco) and lysed using 500 μL lysis buffer (100 mM Tris, 4% (w/v) SDS, pH 8.0) supplemented with cOmplete Mini EDTA-free protease inhibitor cocktail (Roche) and benzonase. Lysates were briefly sonicated (2×10 s), clarified by centrifugation (20000 g, 10 min, 4° C.) and the total protein content of the supernatant was quantified using a BCA assay (Thermo Fisher Scientific).
Sample processing, digestion, desalting, labelling, and fractionation were performed at Fingerprint Proteomics (University of Dundee) as described previously [Gadd et al. 10.1038/nchembio.2329]. FIG. 7 depicts fold change of abundance of 7882 proteins comparing 11JQ15 to DMSO treatment (left) and comparing 1 μM 11JQ17 to DMSO treatment (right), as well as their respective p-values (t-test; n=3).

Brd4 [10] = biological target: T5, Brd4; assay: Mechanistic evaluation: Brd4 degradation after inhibitor pre-treatment; format: cell-based; details: HEK293, 1 μM degrader 4 h
Procedure: HeLa (5×10^5) and HEK293 (1×10^6) cells were seeded in standard 6-well plates (2 mL medium) overnight before pre-treatment with inhibitors (10 μM bortezomib, 10 μM capzimin, 10 μM JQ1). After a 0.5 h pre-incubation time, cells were subsequently treated with vehicle, 1 μM MZ1 or 1 μM 11JQ15, yielding a final overall DMSO concentration of 0.2% v/v. After 4 h incubation, cells were washed with DPBS (Gibco) and lysed using 85 μL RIPA buffer (Sigma-Aldrich) supplemented with cOmplete Mini EDTA-free protease inhibitor cocktail (Roche) and benzonase. Lysates were clarified by centrifugation (20000 g, 10 min, 4° C.) and the total protein content of the supernatant was quantified using a Bradford colorimetric assay. Samples were prepared using equal amounts of total protein and LDS sample buffer (Invitrogen).
Brd4 band intensities were normalized to tubulin loading control and reported in FIG. 6B as % of the average 0.1% DMSO vehicle intensity. Each bar is mean±SEM of three independent experiments performed in duplicate (n=3).

[11] = time to deplete 50% of the protein relative to DMSO
[12] = 1 μM, time to deplete 50% of the protein relative to DMSO
[13] = 1 μM, time to reach 50% of the Dmax

T4 sequence (Q15059 whole entry): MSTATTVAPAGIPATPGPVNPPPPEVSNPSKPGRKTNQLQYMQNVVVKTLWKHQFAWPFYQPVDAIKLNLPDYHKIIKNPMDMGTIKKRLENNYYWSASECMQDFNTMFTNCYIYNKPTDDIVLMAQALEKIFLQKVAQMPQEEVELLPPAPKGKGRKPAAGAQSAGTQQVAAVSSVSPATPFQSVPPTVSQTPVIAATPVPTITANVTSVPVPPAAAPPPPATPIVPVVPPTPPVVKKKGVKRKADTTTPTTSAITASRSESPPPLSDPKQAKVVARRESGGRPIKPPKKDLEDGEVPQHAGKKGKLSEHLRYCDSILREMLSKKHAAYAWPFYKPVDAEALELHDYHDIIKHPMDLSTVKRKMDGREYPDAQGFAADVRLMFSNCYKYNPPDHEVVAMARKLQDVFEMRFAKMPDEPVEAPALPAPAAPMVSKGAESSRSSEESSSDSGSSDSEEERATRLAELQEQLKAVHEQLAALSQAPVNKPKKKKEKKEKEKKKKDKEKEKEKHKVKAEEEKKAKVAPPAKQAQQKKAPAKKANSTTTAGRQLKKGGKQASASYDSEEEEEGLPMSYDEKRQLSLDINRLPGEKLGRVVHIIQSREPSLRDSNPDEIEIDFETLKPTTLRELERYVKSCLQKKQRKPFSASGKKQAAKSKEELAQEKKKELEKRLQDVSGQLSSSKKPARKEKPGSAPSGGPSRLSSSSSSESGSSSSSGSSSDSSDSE
T3 sequence (P25440 whole entry): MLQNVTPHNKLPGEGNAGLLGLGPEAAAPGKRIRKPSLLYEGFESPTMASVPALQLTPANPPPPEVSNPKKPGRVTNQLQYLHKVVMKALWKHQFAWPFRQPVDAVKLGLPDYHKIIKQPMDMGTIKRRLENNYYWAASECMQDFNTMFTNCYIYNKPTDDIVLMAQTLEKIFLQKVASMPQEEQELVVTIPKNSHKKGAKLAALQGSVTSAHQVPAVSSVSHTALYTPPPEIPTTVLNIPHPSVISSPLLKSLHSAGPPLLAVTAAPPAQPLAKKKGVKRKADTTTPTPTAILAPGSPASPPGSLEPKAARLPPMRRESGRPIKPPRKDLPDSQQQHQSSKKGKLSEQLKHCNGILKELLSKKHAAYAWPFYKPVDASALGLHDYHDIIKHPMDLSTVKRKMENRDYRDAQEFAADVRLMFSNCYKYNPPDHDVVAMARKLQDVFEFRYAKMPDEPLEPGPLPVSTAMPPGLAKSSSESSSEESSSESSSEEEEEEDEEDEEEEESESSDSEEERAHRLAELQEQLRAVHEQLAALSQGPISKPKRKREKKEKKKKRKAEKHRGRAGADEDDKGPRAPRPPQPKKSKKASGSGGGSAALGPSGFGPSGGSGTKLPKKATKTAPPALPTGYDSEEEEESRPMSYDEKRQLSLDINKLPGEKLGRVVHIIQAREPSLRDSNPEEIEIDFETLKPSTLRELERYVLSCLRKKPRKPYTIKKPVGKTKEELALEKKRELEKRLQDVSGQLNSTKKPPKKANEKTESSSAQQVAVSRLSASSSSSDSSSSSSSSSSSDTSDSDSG

| SMILES | DC50 (Brd4 (L) [1]; HEK293, Brd4 (L)) [nM] | Dmax (Brd4 (L) [1]; HEK293, Brd4 (L)) [%] | DC50 (Brd4 (L) [1]; HeLa) [nM] | Dmax (Brd4 (L) [1]; HeLa) [%] | DC50 (Brd4 (S) [2]; HEK293, Brd4 (S)) [nM] | Dmax (Brd4 (S) [2]; HEK293, Brd4 (S)) [%] | DC50 (Brd4 (S) [2]; HeLa) [nM] | Dmax (Brd4 (S) [2]; HeLa) [%] | DC50 (Brd2 [7]; HEK293, Brd2, 4 h) [nM] | Dmax (Brd2 [7]; HEK293, Brd2, 4 h) [%] | DC50 (Brd2 [7]; HeLa, Brd2, 4 h) [nM] | Dmax (Brd2 [7]; HeLa, Brd2, 4 h) [%] | DC50 (Brd3 [8]; HEK293, Brd3, 4 h) [nM] | Dmax (Brd3 [8]; HEK293, Brd3, 4 h) [%] | DC50 (Brd3 [8]; HeLa, Brd3, 4 h) [nM] | Dmax (Brd3 [8]; HeLa, Brd3, 4 h) [%] | also measured |
| --- | --- | --- | --- | --- | --- | --- | --- | --- | --- | --- | --- | --- | --- | --- | --- | --- | --- |
| Cn1c(COP(=O)(NCCBr)NCCBr)cnc1[N+](=O)[O-] [TH-302, (1-methyl-2-nitro-1H-imidazole5-yl) N, N0-bis (2-bromoethyl) diamidophosphate] |  |  |  |  |  |  |  |  |  |  |  |  |  |  |  |  | cytotoxic potency (human cancer cell lines; hypoxic conditions): greatly enhanced cytotoxic potency; cytotoxic activity (human cancer cell lines; normoxic conditions): little cytotoxic activity |
| Cc1sc2c(c1C)C(c1ccc(Cl)cc1)=N[C@@H](CC(=O)NCCOCCNC(=O)c1cc(S)c3ncc(C(=O)NCCc4nccs4)cc3c1)c1nnc(C)n1-2 [Example 11JQ1] | 51 to 500 | ≥ 71 | 51 to 500 | ≥ 71 | 51 to 500 | ≥ 71 | 51 to 500 | ≥ 71 | 51 to 500 | ≥ 71 | 51 to 500 | 26 to 50 | ≥ 501 | 51 to 70 | ≥ 501 | 51 to 70 | Dmax at 1 µM (Brd2 [3]; 0-24 hrs): 60%; Abs. T1/2 (Brd2 [3]; [11]): 3.5 h; T1/2 (Brd2 [3]; time to reach 50% of the Dmax): 1.0 h; Dmax at 1 µM (Brd3 [4]; 0-24 hrs): 90%; Abs. T1/2 (Brd3 [4]; [11]): 3.5 h; T1/2 (Brd3 [4]; time to reach 50% of the Dmax): 2.7 h; Dmax (Brd4 (L) [5]; 0-24 hrs): 95%; Abs. T1/2 (Brd4 (L) [5]; [12]): 1.7 h; T1/2 (Brd4 (L) [5]; [13]): 1.6 h; Dmax (Brd4 (S) [6]; 0-24 hrs): 95%; Abs. T1/2 (Brd4 (S) [6]; [12]): 1.9 h; T1/2 (Brd4 (S) [6]; [13]): 2 h |
| Cc1sc2c(c1C)C(c1ccc(Cl)cc1)=N[C@@H](CC(=O)NCCOCCNC(=O)c1cc(SC(C)(C)C)c3ncc(C(=O)NCCc4nccs4)cc3c1)c1nnc(C)n1-2 [Example 11JQ17] |  | ≤ 25 |  | ≤ 25 |  | ≤ 25 |  | ≤ 25 |  | ≤ 25 |  | ≤ 25 |  | ≤ 25 |  | ≤ 25 | Brd4 levels (FIG. 3) (Brd4 [9]): minimal depletion; fold change of abundance of 7882 proteins vs DMSO (FIG. 7) (HEK293 cells): does not show any BET depletion |
| Cc1sc2c(c1C)C(c1ccc(Cl)cc1)=N[C@@H](CC(=O)NCCCCNC(=O)c1cc(S)c3ncc(C(=O)NCc4ccc(F)cc4)cc3c1)c1nnc(C)n1-2 [Example 11JQ12] | 51 to 500 | ≥ 71 | ≥ 501 | ≥ 71 | 51 to 500 | ≥ 71 | ≥ 501 | ≥ 71 | ≥ 501 | 26 to 50 | ≥ 501 | 26 to 50 | ≥ 501 | 26 to 50 | ≥ 501 | ≤ 25 |  |
| Cc1ncsc1-c1ccc(CNC(=O)[C@@H]2C[C@@H](O)CN2C(=O)[C@@H](NC(=O)COCCOCCOCCNC(=O)C[C@@H]2N=C(c3ccc(Cl)cc3)c3c(sc(C)c3C)-n3c(C)nnc32)C(C)(C)C)cc1 [MZ1, reference compound] |  |  |  |  |  |  |  |  |  |  |  |  |  |  |  |  | Brd4 degradation in the presence of JQ1 (Brd4 [10]; 10 μM JQ1 pre-treatment 0.5 h): blocked; Brd4 degradation in the presence of bortezomib (Brd4 [10]; 10 μM bortezomib pre-treatment 0.5 h): blocked; Brd4 degradation in the presence of capzimin (Brd4 [10]; 10 μM capzimin pre-treatment 0.5 h): only blocked by bortezomib and JQ1 |
